Test results as given in patent US4686230A, “Picoline derivative useful as gastric acid secretion inhibitors” (Byk Gulden Lomberg Chemische Fabrik GmbH, priority 1984, dated 1987).

Legend:
gastric secretion (HCl) = assay: Inhibition of the HCl secretion of the stomach, Shay rats; type: in vivo, rat; conditions: total 4 h; for ED25 / ED50: Rattus norvegicus, po, orally; for ED25: dose which reduces HCl secretion by 25% vs control; for ED50: dose which reduces HCl secretion by 50% vs control; for % inhibition of the HCl secretion: after administration of the antiulcer ED50
Procedure: (§1) The investigated compounds according to the invention have been given numbers as follows:
(§2) The effects of the investigated compounds on the formation of stomach lesions induced by pylorus ligature and oral administration of 100 mg/kg of acetylsalicylic acid and the gastric secretion (HCl) for 4 h in rats (so-called Shay rats) are shown in the table which follows.
(§3) + ED25 and ED50 = dose which reduces the lesion index and the HCl
(§4) secretion (Σ4 h) of the rat stomach in the treated group by 25 and
(§5) 50% respectively, as compared with the control group.
++ after administration of the antiulcer ED50
(§6) The ulcers are provoked in rats (female, 180-200 g, 4 animals in each cage on a high grid) kept fasting for 24 hours by pylorus ligature (under diethyl ether anaesthesia) and oral administration of 100 mg/10 ml/kg of acetylsalicylic acid. The substances to be tested are administered orally (10 ml/kg) one hour before the pylorus ligature. The wounds are closed by means of Michel clamps. 4 hours later, the animals are killed under ether intoxication by atlas dislocation and the stomach is resected. The stomach is opened longitudinally and fixed on a cork plate, after first determining the quantity of the secreted gastric juice (volume) and later its HCl content (titration with sodium hydroxide solution); the number and size (=diameter) of existing ulcers was determined by means of a stereomicroscope at 10-fold magnification. The product of the degree of severity (according to the points rating below) and of the number of ulcers is used as the individual lesion index.
(§7) The reduction in the mean lesion index of each treated group as compared with that of the control group (=100%) is taken as the measure of the anti-ulcerogenic effect.

[1] = system: stomach lesions induced by pylorus ligature and oral administration of 100 mg/kg of acetylsalicylic acid; assay: Protective action on the stomach (anti-ulcerogenic action), Shay rats: pylorus ligature + acetylsalicylic acid; type: in vivo; conditions: Rattus norvegicus, 1 h, orally, dose which reduces the mean lesion index by 50% vs control, given one hour before pylorus ligature, read-out: Protective action on the stomach (rats), inhibition of the lesion index, ED50
Procedure: as §1, §2, §3, §4, §5
The anti-ulcerogenic action was tested by the method of so-called Shay rats:
as §6, with “index. […]” for “index.”
as §7

| Structure (SMILES) | ED25 (gastric secretion (HCl)) | ED50 (gastric secretion (HCl)) | % inhibition of the HCl secretion (gastric secretion (HCl)) | ED50 [1] |
| --- | --- | --- | --- | --- |
| COc1ccnc(C[S+]([O-])c2nc3c(C)c(OC(F)F)c(C)cc3[nH]2)c1C (stereo not shown) [Serial No. 1, 5-Difluoromethoxy-2-[(4-methoxy-3-methyl-2-pyridyl)methylsulphinyl]-4,6-dimethyl-1H-benzimidazole] | 0.5 mg/kg | 1.1 mg/kg | 22% | 0.5 mg/kg |
| COc1ccnc(C[S+]([O-])c2nc3c(C)c(OC(F)F)c(C)cc3[nH]2)c1OC (stereo not shown) [Serial No. 4, 5-Difluoromethoxy-2-[(3,4-dimethoxy-2-pyridyl)-methylsulphinyl]-4,6-dimethyl-1H-benzimidazole] | ~1.3 mg/kg | ~2 mg/kg | 10% | ~1 mg/kg |
| COc1ccnc(C[S+]([O-])c2nc3cc(OC(F)(F)C(F)Cl)ccc3[nH]2)c1 (stereo not shown) [Serial No. 6, 5-(2-Chloro-1,1,2-trifluoroethoxy)-2-[(4-methoxy-2-pyridyl)methylsulphinyl]-1H-benzimidazole] | 0.55 mg/kg | 1.3 mg/kg | 25% | 0.55 mg/kg |
| COc1ccnc(C(C)[S+]([O-])c2nc3cc(OC(F)F)c(OC)cc3[nH]2)c1 (stereo not shown) [Serial No. 2, 5-Difluoromethoxy-6-methoxy-2-{[1-(4-methoxy-2-pyridyl)ethyl]sulphinyl}-1H-benzimidazole] | ~1 mg/kg | ~2 mg/kg | ~ 20% | 0.6 mg/kg |
| COc1ccnc(C(C)[S+]([O-])c2nc3cc(OC(F)(F)C(F)Cl)ccc3[nH]2)c1 (stereo not shown) [Serial No. 7] | 0.4 mg/kg | 0.8 mg/kg | 40% | 0.6 mg/kg |
| COc1ccnc(CSc2nc3c(C)c(OC(F)F)c(C)cc3[nH]2)c1C [Serial No. 8, 5-Difluoromethoxy-2-[(4-methoxy-3-methyl-2-pyridyl)methylthio]-4,6-dimethyl-1H-benzimidazole] | 1 mg/kg | 1 mg/kg | 15% | 0.7 mg/kg |
| COc1ccnc(C[S+]([O-])c2nc3cc(OC(F)(F)C(F)Cl)ccc3[nH]2)c1C (stereo not shown) [compound 10] | 0.4 mg/kg | 0.8 mg/kg | 27% | 0.4 mg/kg |
| COc1ccnc(C(C)[S+]([O-])c2nc3cc4c(cc3[nH]2)OC(F)(F)O4)c1 (stereo not shown) [compound 5] | 1 mg/kg | 1.7 mg/kg | 25% | 1 mg/kg |
| COc1ccnc(C(C)Sc2nc3cc(OC(F)F)c(OC)cc3[nH]2)c1 (stereo not shown) [Serial No. 9, 5-Difluoromethoxy-6-methoxy-2-{[1-(4-methoxy-2-pyridyl)ethyl]thio}-1H-benzimidazole] | < 1 mg/kg | ~4 mg/kg | 35% | 1.7 mg/kg |
| COc1ccnc(C(C)[S+]([O-])c2nc3cc(OC(F)(F)C(F)F)ccc3[nH]2)c1 (stereo not shown) [Serial No. 3, 5-(1,1,2,2-Tetrafluoroethoxy)-2-{[1-(4-methoxy-2-pyridyl)ethyl]sulphinyl}-1H-benzimidazole] | 0.35 mg/kg | 0.8 mg/kg | 35% | 0.5 mg/kg |
